Reference: patent US12357652B2, “Formulations of phosphoramidate derivatives of nucleoside drugs” (priority 2015, dated 2025)
Read-outs that look alike come from different tables or passages of the source.

Key:
[1] = Solubility of NUC-3373 in a range of pharmaceutically relevant solvents; type: physicochemical
Text: The solubility of NUC-3373 (mixture of diastereoisomers) in a range of solvents is shown in […]

cancer = assay: Clinical trial of NUC-3373; type: in vivo; settings: infusion solutions prepared as in Example 3; early results
Text: In a clinical trial of NUC-3373, this administration methodology has allowed NUC-3373 to be successfully administered via a CVAD.

## C[C@H](NP(=O)(OC[C@H]1O[C@@H](n2cc(F)c(=O)[nH]c2=O)CC1O)Oc1cccc2ccccc12)C(=O)OCc1ccccc1 (stereo partly drawn) [NUC-3373, 5-fluoro-2′-deoxyuridine-5′-O-[1-naphthyl (benzoxy-L-alaninyl)] phosphate]
[1]; DMA, organic solvent or mixture, read-out: Solubility
  Solubility: 950 mg/mL
[1]; DMSO, organic solvent or mixture, read-out: Solubility
  Solubility: 948 mg/mL
[1]; NMP, organic solvent or mixture, read-out: Solubility
  Solubility: 705 mg/mL
[1]; PEG 400, organic solvent or mixture, read-out: Solubility
  Solubility: 422 mg/mL
[1]; Water
  Solubility: extremely low
[1]; ethanol, organic solvent or mixture, read-out: Solubility
  Solubility: 778 mg/mL
[1]; propylene glycol, organic solvent or mixture, read-out: Solubility
  Solubility: 449 mg/mL
[1]; water, read-out: Solubility
  Solubility: < 2 mg/mL
cancer
  Efficacy in treating cancer: some efficacy in treating cancer
